Source: ChEMBL document CHEMBL5321222, “N(14)-substituted evodiamine derivatives as dual topoisomerase 1/tubulin-Inhibiting anti-gastrointestinal tumor agents” (Eur J Med Chem, 2023)
The source made the active and inactive calls. The rule behind the calls is not given here.

Columns and labels:
GES1 = experiment: Antiproliferative activity against human GES1 cells assessed as reduction in cell viability incubated for 72 hrs by MTT assay; type: functional, cell-based; conditions: GES1, 72 h
HGC-27 = experiment: Antiproliferative activity against human HGC-27 cells assessed as reduction in cell viability incubated for 72 hrs by MTT assay; type: functional, cell-based; conditions: HGC-27, 72 h
MGC-803 [1] = experiment: Antiproliferative activity against human MGC-803 cells assessed as reduction in cell viability incubated for 72 hrs by MTT assay; type: functional, cell-based; conditions: MGC-803, 72 h
SW480 = experiment: Antiproliferative activity against human SW480 cells assessed as reduction in cell viability incubated for 72 hrs by MTT assay; type: functional, cell-based; conditions: SW480, 72 h
RKO [2] = experiment: Antiproliferative activity against human RKO cells assessed as reduction in cell viability incubated for 72 hrs by MTT assay; type: functional, cell-based
LoVo = experiment: Antiproliferative activity against human LoVo cells assessed as reduction in cell viability incubated for 72 hrs by MTT assay; type: functional, cell-based
SGC-7901 = experiment: Antiproliferative activity against human SGC-7901 cells assessed as reduction in cell viability incubated for 72 hrs by MTT assay; type: functional, cell-based; conditions: SGC-7901, 72 h
RKO [3] = experiment: Induction of apoptosis in human RKO cells assessed as late apoptotic cells at 0.2 uM incubated for 24 hrs by propidium iodide and Annexin V/FITC staining based flow cytometry assay (reference value: 0.50%); type: functional
MGC-803 [4] = experiment: Induction of apoptosis in human MGC-803 cells assessed as early apoptotic cells at 0.2 uM incubated for 24 hrs by propidium iodide and Annexin V/FITC staining based flow cytometry assay (reference value: 1.85%); type: functional
MGC-803 [5] = experiment: Induction of morphological changes in human MGC-803 cells at 0.2 uM incubated for 24 hrs by Giemsa staining based micrscopic analysis; type: functional, cell-based
RKO [6] = experiment: Induction of cell cycle arrest in human RKO cells at 0.2 uM incubated for 24 hrs by propidium iodide staining based flow cytometry analysis; type: functional
RKO [7] = experiment: Induction of morphological changes in human RKO cells at 0.2 uM incubated for 24 hrs by Giemsa staining based micrscopic analysis; type: functional, cell-based
[8] = target: T1, DNA topoisomerase 1 (Homo sapiens) (UniProt P11387); experiment: Inhibition of topoisomerase 1 (unknown origin) at 200 uM using PBR322 DNA as substrate incubated for 30 mins by agarose gel electrophoresis
T1 sequence (whole entry): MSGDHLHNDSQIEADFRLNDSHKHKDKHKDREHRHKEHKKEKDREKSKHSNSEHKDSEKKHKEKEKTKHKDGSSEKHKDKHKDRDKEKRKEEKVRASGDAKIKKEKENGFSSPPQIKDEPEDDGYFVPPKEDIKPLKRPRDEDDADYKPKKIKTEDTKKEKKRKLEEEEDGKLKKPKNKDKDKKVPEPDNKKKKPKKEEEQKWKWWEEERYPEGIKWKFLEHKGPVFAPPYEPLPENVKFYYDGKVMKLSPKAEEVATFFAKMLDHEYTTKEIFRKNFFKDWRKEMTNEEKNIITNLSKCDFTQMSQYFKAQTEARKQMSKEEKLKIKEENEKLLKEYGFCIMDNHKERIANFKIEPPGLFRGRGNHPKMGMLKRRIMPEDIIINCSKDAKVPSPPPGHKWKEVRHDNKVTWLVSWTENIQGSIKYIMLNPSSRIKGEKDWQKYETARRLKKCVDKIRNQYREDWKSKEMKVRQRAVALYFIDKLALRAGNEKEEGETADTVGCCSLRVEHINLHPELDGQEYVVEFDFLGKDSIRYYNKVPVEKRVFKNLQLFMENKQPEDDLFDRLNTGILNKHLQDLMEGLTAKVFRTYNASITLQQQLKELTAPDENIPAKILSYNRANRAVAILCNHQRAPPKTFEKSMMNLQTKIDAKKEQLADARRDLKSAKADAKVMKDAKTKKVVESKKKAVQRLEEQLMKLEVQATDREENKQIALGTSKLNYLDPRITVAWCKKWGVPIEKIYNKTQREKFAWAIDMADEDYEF

RKO [9] = experiment: Inhibition of cell migration in human RKO cells assessed as reduction in tumor wound healing incubated for 24 hrs by microscopic analysis; type: functional, cell-based; conditions: dose 10-90 nM
MGC-803 [10] = experiment: Induction of apoptosis in human MGC-803 cells assessed as late apoptotic cells at 0.2 uM incubated for 24 hrs by propidium iodide and Annexin V/FITC staining based flow cytometry assay (reference value: 4.10%); type: functional
MGC-803 [11] = experiment: Inhibition of cell […] in human MGC-803 cells at 50 nM incubated for 24 hrs by scratch wound healing assay; type: functional, cell-based
RKO [12] = experiment: Induction of apoptosis in human RKO cells assessed as early apoptotic cells at 0.2 uM incubated for 24 hrs by propidium iodide and Annexin V/FITC staining based flow cytometry assay (reference value: 0.16%); type: functional
MGC-803 [13] = experiment: Induction of cell cycle arrest in human MGC-803 cells at 0.2 uM incubated for 24 hrs by propidium iodide staining based flow cytometry analysis; type: functional

Structure (SMILES)	IC50 (MGC-803 [1])	IC50 (SW480)	IC50 (LoVo)	IC50 (SGC-7901)	inhibition [8]	IC50 (GES1)	IC50 (HGC-27)	IC50 (RKO [2])	Activity (RKO [3])	Activity (MGC-803 [4])	Activity (MGC-803 [5])	Activity (RKO [6])	Activity (RKO [7])	inhibition (RKO [9])	Activity (MGC-803 [10])	inhibition (MGC-803 [11])	Activity (RKO [12])	Activity (MGC-803 [13])
COc1ccc(CCN2c3ccccc3C(=O)N3CCc4c([nH]c5ccccc45)C32)cc1OC (centres undefined)	> 30 µM	> 30 µM	> 30 µM	> 30 µM		> 30 µM	> 30 µM	> 30 µM										
O=C1c2ccccc2N(CCBr)C2c3[nH]c4ccccc4c3CCN12 (centres undefined)	0.55 µM	0.97 µM	1.34 µM	1.06 µM		1.34 µM	2.05 µM	0.98 µM										
CC(C)(C)CN1c2ccccc2C(=O)N2CCc3c([nH]c4ccccc34)C21 (centres undefined)	0.91 µM	1.84 µM	1.95 µM	1.21 µM		1.68 µM	> 3 µM	1.31 µM										
CC(C)N1c2ccccc2C(=O)N2CCc3c([nH]c4ccccc34)C21 (centres undefined)	0.13 µM	1.17 µM	0.54 µM	0.38 µM		0.9 µM	2.27 µM	0.49 µM										
O=C1c2ccccc2N(Cc2ccccc2)C2c3[nH]c4ccccc4c3CCN12 (centres undefined)	9.34 µM	13.3 µM	> 30 µM	11.6 µM		15.9 µM	10.7 µM	5.96 µM										
C#CCN1c2ccccc2C(=O)N2CCc3c([nH]c4ccccc34)C21 (centres undefined)	0.21 µM	1.22 µM	1.5 µM	0.64 µM		1.2 µM	1.52 µM	0.85 µM										
CCCCN1c2ccccc2C(=O)N2CCc3c([nH]c4ccccc34)C21 (centres undefined)	0.16 µM	1.03 µM	1.99 µM	0.46 µM		0.5 µM	1.7 µM	0.45 µM										
O=C1c2ccccc2N(CC2CC2)C2c3[nH]c4ccccc4c3CCN12 (centres undefined)	0.1 µM	1.84 µM	0.44 µM	0.22 µM	Active	0.21 µM	1.85 µM	0.42 µM										

Continued, in another order:

IC50 (MGC-803 [1])	IC50 (SW480)	IC50 (LoVo)	IC50 (SGC-7901)	inhibition [8]	Structure (SMILES)	IC50 (GES1)	IC50 (HGC-27)	IC50 (RKO [2])	Activity (RKO [3])	Activity (MGC-803 [4])	Activity (MGC-803 [5])	Activity (RKO [6])	Activity (RKO [7])	inhibition (RKO [9])	Activity (MGC-803 [10])	inhibition (MGC-803 [11])	Activity (RKO [12])	Activity (MGC-803 [13])
8.52 µM	> 30 µM	24.2 µM	17.7 µM	Active	CN1c2ccccc2C(=O)N2CCc3c([nH]c4ccccc34)C21 (racemic)	> 30 µM	> 30 µM	29.7 µM	7.71%	3.15%	inactive	inactive	inactive	inactive	5.24%	inactive	4.63%	inactive
> 30 µM	> 30 µM	> 30 µM	6.66 µM		COC(=O)CN1c2ccccc2C(=O)N2CCc3c([nH]c4ccccc34)C21 (centres undefined)	> 30 µM	> 30 µM	23.4 µM										
19.7 µM	> 30 µM	> 30 µM	> 30 µM		C=C(CN1c2ccccc2C(=O)N2CCc3c([nH]c4ccccc34)C21)C(=O)OC (centres undefined)	> 30 µM	> 30 µM	> 30 µM										
